Earlier results, collected in publication PMC11359394 (Pharmaceutics, 2024).

Assays:
[1] = system: CYP2C8 and CYP3A4 isoenzymes
[2] = parameters: method as in US FDA GRAS Notices; details: rats, dietary consumption; ref US FDA GRAS Notices

solubility increase by exploiting the polymorphs [fold] | fraction metabolized in the liver by CYP P450 [1] | SMILES | dietary dose with no adverse effects [2]
60 | Approximately 90% | CC(=O)O[C@H]1C(=O)[C@@]2(C)[C@H]([C@H](OC(=O)c3ccccc3)[C@]3(O)C[C@H](OC(=O)[C@H](O)[C@@H](NC(=O)c4ccccc4)c4ccccc4)C(C)=C1C3(C)C)[C@]1(OC(C)=O)CO[C@@H]1C[C@@H]2O [Paclitaxel] | 
 |  | C=C1C[C@@]23CC[C@H]4[C@@](C)(CCC[C@@]4(C)C(=O)O[C@@H]4O[C@H](CO)[C@@H](O)[C@H](O)[C@H]4O)[C@@H]2CC[C@]1(O[C@@H]1O[C@H](CO)[C@@H](O)[C@H](O)[C@H]1O)C3 [RUB, Rubusoside] | up to 2 g/kg
